Here are results for 11 molecules from patent publication US20130217640A1 (priority 2010, published 2013).

Data set [1] can be described thus: Solution stability study at three pD's in phosphate buffered D2O, monitored by 1H NMR. As to conditions: 23° C.; for stability in solution (in words): pD 5.0, 6.0 and 7.0, phosphate buffered D2O, protected from light; for change in 1H NMR spectra: after 167 days, pD 5.0, 6.0, 7.0 in D2O. It counts as physicochemical. The protocol:
10 mL (11.07 g) D2O was placed in 3 separate vials with a stir bar and 0.002 moles (0.272 g) monobasic potassium phosphate (KH2PO4) was added to each. With the pD metered, NaOD/D2O was added drop-wise to each to adjust the pD's to 5.0, 6.0, and 7.0. Each of these solutions was gently boiled before use. Thus each vial contained […] phosphate buffered solution. […] The sample was sterilized by heating for 10 seconds, and after it had cooled down to ambient temperature (about 1 minute), 0.3 mL of one of the 0.2 mM 3 buffered solutions was added. The 0.6 mL sample was then placed in a sterilized NMR tube and the tube sealed and labeled. Each of the samples was stored at 23° C. protected from the light and monitored by ^1H NMR (64 scans for each sample) periodically.

Data set [2] is described as follows: Water solubility of the analogs (saturated D2O solution, 1H NMR against DSS standard). Particulars: for water solubility (in words): D2O, Table 1. It counts as physicochemical. On the procedure: The method use involved stirring the sample in D2O for a period of 3 days, followed by filtration using a 0.2μ syringe filter. A measured volume of this saturated solution was diluted with a standard solution of DSS in D2O, and a ^1H NMR was taken. Integration of the DSS peaks compared to that of the analog would allow for the determination of its concentration, and thus the concentration of the saturated solution.

A short description of data set [3]: Pharmacokinetics after intravenous administration: pro-drug and released acetaminophen in plasma or blood. Particulars: for half-life: male, Sprague-Dawley, plasma, 66.3 umol/kg, read-out: half life (t1/2) of the pro-drug; for half-life / half-life of the pro-drug (in words) / AUC of the pro-drug (in words): target dose 66.3 μmol/Kg, Table 4. The class given is in vivo, male Sprague-Dawley rats.

Converted amounts (≈) assume the structure as drawn.

For `CC(=O)Nc1ccc(O[C@@H]2C=C[C@H](O)[C@@H](CO)O2)cc1` [Compound 1, N-(4-((2R,5S,6R)-5-hydroxy-6-(hydroxymethyl)-5,6-dihydro-2H-pyran-2-yloxy)phenyl)acetamide, reference compound], in data set [1], the “stability in solution (in words)” value was “least stable to all of the pD's”.

Consider `CC(=O)Nc1ccc(O[C@H]2O[C@H](CO)[C@@H](OC3O[C@H](CO)[C@@H](O)[C@H](O)[C@H]3O)[C@H](O)[C@@H]2O)cc1` (stereo partly drawn) [Compound 5, 1-(4-acetaminophenoxy) 2-epi maltose], for which the “water solubility (in words)” value in data set [2] is given as “highest solubility of all of the analogs”. Besides, the “change in 1H NMR spectra” value in data set [1] is “no change”.

As to `CC(=O)Nc1ccc(O[C@H]2O[C@H](CO)[C@@H](O)[C@H](O)[C@@H]2O)cc1` [Compound 8, N-(4-((2R,3S,4S,5S,6R)-3,4,5-trihydroxy-6-(hydroxymethyl)tetrahydro-2H-pyran-2-yloxy)phenyl)acetamide], in data set [3] (rat, intravenous), the half-life is below 1 h and the “half-life of the pro-drug (in words)” value is reported as “relatively high half-lives”. Besides, in data set [1], the “change in 1H NMR spectra” value was “no change”.

In the case of `CC(=O)Nc1ccc(O[C@@H]2CC[C@H](O)[C@@H](CO)O2)cc1` [Compound 12, 1-(4′-acetamidophenoxy) 2,3-dideoxy glucose], in data set [1], the “stability in solution (in words)” value is on record as “showing a lot of instability”.

Regarding `CC(=O)Nc1ccc(O[C@H]2O[C@H](COC(C)=O)[C@@H](O)[C@H](O)[C@@H]2O)cc1` [Compound 15], in data set [3] (rat, intravenous), the half-life is below 1 h and the “AUC of the pro-drug (in words)” value is “low values for AUC”. In addition, in data set [3] (rat, intravenous, Table 5), the “AUC of acetaminophen released by the pro-drug (in words)” value is listed as “largest AUC value of all of the pro-drugs”. Moreover, in data set [3] (summary statement), the “overall characteristics (water solubility, release of acetaminophen, AUC)” value was “best combination of water solubility, quick release of the acetaminophen, and AUC”.

With `CCCC(=O)OC[C@H]1O[C@H](Oc2ccc(NC(C)=O)cc2)C=C[C@@H]1O` [Compound 16, 1-(4′-acetamidophenoxy)-6-O-butyryl-2,3-dideoxy 2,3-didehydro glucose], the “water solubility (in words)” value in data set [2] was “excellent solubility”.

As for `CCCC(=O)OC[C@H]1O[C@H](Oc2ccc(NC(C)=O)cc2)[C@@H](O)[C@@H](O)[C@@H]1O` [Compound 18, 1-(4′-acetamidophenoxy)-6-O-butyrylmannose], in data set [3] (rat, intravenous), the half-life was below 1 h and the “AUC of the pro-drug (in words)” value is on record as “low values for AUC”.

For the molecule `CC(=O)Nc1ccc(O[C@H]2O[C@H](COC(=O)C(C)C)[C@@H](O)[C@H](O)[C@@H]2O)cc1` [Compound 19, 1-(4′-acetamidophenoxy)-6-O-isobutyrylmannose], in data set [3] (rat, intravenous), the half-life is below 1 h and the “AUC of the pro-drug (in words)” value is “low values for AUC”.

Take `CC(=O)Nc1ccc(O[C@H]2O[C@H](COC(=O)CCC(=O)O)[C@@H](O)[C@H](O)[C@@H]2O)cc1` [Compound 20]: in data set [3] (rat, intravenous), the “AUC of the pro-drug (in words)” value is on record as “high AUC values” and the “half-life of the pro-drug (in words)” value is recorded as “relatively high half-lives”.

In the case of `CC(=O)Nc1ccc(O[C@H]2O[C@H](C)[C@@H](O)[C@H](O)[C@@H]2O)cc1` [Compound 23, 1-(4′-acetamidophenoxy)-6-deoxymannose], in data set [3] (rat, intravenous), the “AUC of the pro-drug (in words)” value is “high AUC values” and the “half-life of the pro-drug (in words)” value is reported as “relatively high half-lives”.

Turning to `CC(=O)Nc1ccc(O)cc1` [acetaminophen, reference compound], the water solubility in data set [2] (stirred in D2O for 3 days, filtered 0.2μ, 1H NMR integration vs DSS) was determined as 13 mg/mL (≈ 86 mM). In addition, the “change in 1H NMR spectra” value in data set [1] is given as “no change”.
